# Source: patent US20060252807A1, “Novel ortho-terphenyl inhibitors of p38 kinase and methods of treating inflammatory disorders” (Kalypsys, Inc., priority 2005, published 2006)
# Target: T1, active p38 alpha enzyme (Upstate Biotechnology) (Homo sapiens, UniProt Q16539)
# T1 construct: purchased Upstate Biotechnology
# Assay: p38α biochemical assay (ATP turnover, luminescent detection, Cambrex PKlight)
# Details: p38α kinase; Table 1 Biological Activity
# Procedure, shortened: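 Measures total ATP turnover by luminescence after human p38α phosphorylates full MapkapK2 protein. Final ATP is 1.4 uM, and incubation runs 2 hours at 30C. The buffer includes 100 mM MgCl2, 4 mM CaCl2 and 1 mg/ml BSA.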
# T1 sequence (Q16539 whole entry): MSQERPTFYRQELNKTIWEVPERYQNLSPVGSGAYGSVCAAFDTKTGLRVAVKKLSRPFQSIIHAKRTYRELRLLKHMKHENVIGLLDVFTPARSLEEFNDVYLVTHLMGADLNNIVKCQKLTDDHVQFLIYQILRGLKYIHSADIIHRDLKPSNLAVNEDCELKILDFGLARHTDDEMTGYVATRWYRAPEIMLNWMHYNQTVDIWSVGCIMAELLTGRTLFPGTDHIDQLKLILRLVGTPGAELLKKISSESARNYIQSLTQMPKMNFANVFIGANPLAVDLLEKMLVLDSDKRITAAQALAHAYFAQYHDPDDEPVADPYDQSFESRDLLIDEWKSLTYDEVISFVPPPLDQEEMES
row,IC50 [nM],Structure (SMILES)
1,> 1000,CCCCCc1ccc(C(=O)N2CCC(c3[nH]nc(-c4ccc(F)cc4)c3-c3nc(C(=O)NC(C)C)cs3)CC2)cc1 [Example 971]
2,> 1000,CC(C)NC(=O)c1csc(-c2c(-c3ccc(F)cc3)n[nH]c2C2CCN(C(=O)c3cc(F)c(F)cc3Cl)CC2)n1 [Example 972]
3,> 1000,CC(C)NC(=O)c1csc(-c2c(-c3ccc(F)cc3)n[nH]c2C2CCN(C(=O)c3cc(F)c(Cl)cc3F)CC2)n1 [Example 973]
4,> 1000,CCN(CC)c1ccc(C(=O)N2CCC(c3[nH]nc(-c4ccc(F)cc4)c3-c3nc(C(=O)NC(C)C)cs3)CC2)cc1 [Example 974]
5,> 1000,COc1cc(/C=C/C(=O)N2CCC(c3[nH]nc(-c4ccc(F)cc4)c3-c3nc(C(=O)NC(C)C)cs3)CC2)ccc1O [Example 975]
6,> 1000,COc1ccc(/C=C/C(=O)N2CCC(c3[nH]nc(-c4ccc(F)cc4)c3-c3nc(C(=O)NC(C)C)cs3)CC2)cc1O [Example 976]
7,≤ 1000,CCCCOc1ccc(C(=O)N2CCC(c3[nH]nc(-c4ccc(F)cc4)c3-c3nc(C(=O)NC(C)C)cs3)CC2)cc1 [Example 977]
8,> 1000,CC(C)NC(=O)c1csc(-c2c(-c3ccc(F)cc3)n[nH]c2C2CCN(C(=O)c3cc4cc(Cl)ccc4o3)CC2)n1 [Example 978]
9,> 1000,COc1ccc([N+](=O)[O-])c(C(=O)N2CCC(c3[nH]nc(-c4ccc(F)cc4)c3-c3nc(C(=O)NC(C)C)cs3)CC2)c1 [Example 979]
10,> 1000,COc1cc(C(=O)N2CCC(c3[nH]nc(-c4ccc(F)cc4)c3-c3nc(C(=O)NC(C)C)cs3)CC2)cc(OC)c1O [Example 980]
11,> 1000,CC(C)NC(=O)c1csc(-c2c(-c3ccc(F)cc3)n[nH]c2C2CCN(C(=O)c3ccccc3-c3ccccc3)CC2)n1 [Example 981]
12,> 1000,CC(C)NC(=O)c1csc(-c2c(-c3ccc(F)cc3)n[nH]c2C2CCN(C(=O)c3cccc(Br)c3)CC2)n1 [Example 982]
13,> 1000,CC(C)NC(=O)c1csc(-c2c(-c3ccc(F)cc3)n[nH]c2C2CCN(C(=O)c3ccc(Br)cc3)CC2)n1 [Example 983]
14,> 1000,CC(C)NC(=O)c1csc(-c2c(-c3ccc(F)cc3)n[nH]c2C2CCN(C(=O)c3cccc(Cl)c3[N+](=O)[O-])CC2)n1 [Example 984]
15,> 1000,CC(C)NC(=O)c1csc(-c2c(-c3ccc(F)cc3)n[nH]c2C2CCN(C(=O)c3cc([N+](=O)[O-])ccc3Cl)CC2)n1 [Example 985]
16,> 1000,CC(C)NC(=O)c1csc(-c2c(-c3ccc(F)cc3)n[nH]c2C2CCN(C(=O)c3ccc([N+](=O)[O-])cc3Cl)CC2)n1 [Example 986]
17,> 1000,CC(C)NC(=O)c1csc(-c2c(-c3ccc(F)cc3)n[nH]c2C2CCN(C(=O)C3=CC=CC(Cl)C=C3[N+](=O)[O-])CC2)n1 (stereo not drawn) [Example 987]
18,≤ 1000,CC(C)NC(=O)c1csc(-c2c(-c3ccc(F)cc3)n[nH]c2C2CCN(C(=O)c3ccc(Cl)c([N+](=O)[O-])c3)CC2)n1 [Example 988]
19,> 1000,CC(C)NC(=O)c1csc(-c2c(-c3ccc(F)cc3)n[nH]c2C2CCN(C(=O)c3cc(Cl)ccc3[N+](=O)[O-])CC2)n1 [Example 989]
20,> 1000,CC(C)NC(=O)c1csc(-c2c(-c3ccc(F)cc3)n[nH]c2C2CCN(C(=O)c3cccc(Br)n3)CC2)n1 [Example 990]

row,IC50 [nM],Structure (SMILES)
1,≤ 1000,CC(C)NC(=O)c1csc(-c2c(-c3ccc(F)cc3)n[nH]c2C2CCN(C(=O)c3cncc(Br)c3)CC2)n1 [Example 991]
2,> 1000,CC(C)NC(=O)c1csc(-c2c(-c3ccc(F)cc3)n[nH]c2C2CCN(C(=O)c3cc(F)c(F)cc3[N+](=O)[O-])CC2)n1 [Example 992]
3,> 1000,CC(C)NC(=O)c1csc(-c2c(-c3ccc(F)cc3)n[nH]c2C2CCN(C(=O)Cc3ccc(C(F)(F)F)cc3)CC2)n1 [Example 993]
4,> 1000,CC(C)Cc1ccc(C(C)C(=O)N2CCC(c3[nH]nc(-c4ccc(F)cc4)c3-c3nc(C(=O)NC(C)C)cs3)CC2)cc1 (stereo not drawn) [Example 994]
5,> 1000,CC(C)NC(=O)c1csc(-c2c(-c3ccc(F)cc3)n[nH]c2C2CCN(C(=O)c3cc(Cl)c(O)c(Cl)c3)CC2)n1 [Example 995]
6,> 1000,CC(C)NC(=O)c1csc(-c2c(-c3ccc(F)cc3)n[nH]c2C2CCN(C(=O)c3c(F)c(F)c(F)c(F)c3F)CC2)n1 [Example 996]
7,> 1000,COc1cc(OC)c(C(=O)N2CCC(c3[nH]nc(-c4ccc(F)cc4)c3-c3nc(C(=O)NC(C)C)cs3)CC2)c(OC)c1 [Example 997]
8,> 1000,COc1cc(OC)c(C(=O)N2CCC(c3[nH]nc(-c4ccc(F)cc4)c3-c3nc(C(=O)NC(C)C)cs3)CC2)cc1OC [Example 998]
9,> 1000,COc1cc(C(=O)N2CCC(c3[nH]nc(-c4ccc(F)cc4)c3-c3nc(C(=O)NC(C)C)cs3)CC2)cc(OC)c1OC [Example 999]
10,> 1000,COc1ccc(C(=O)N2CCC(c3[nH]nc(-c4ccc(F)cc4)c3-c3nc(C(=O)NC(C)C)cs3)CC2)c(OC)c1OC [Example 1000]
11,> 1000,CC(C)NC(=O)c1csc(-c2c(-c3ccc(F)cc3)n[nH]c2C2CCN(C(=O)c3ccccc3Cc3ccccc3)CC2)n1 [Example 1001]
12,> 1000,CC(C)NC(=O)c1csc(-c2c(-c3ccc(F)cc3)n[nH]c2C2CCN(C(=O)c3cccc(Oc4ccccc4)c3)CC2)n1 [Example 1002]
13,> 1000,CC(C)NC(=O)c1csc(-c2c(-c3ccc(F)cc3)n[nH]c2C2CCN(C(=O)c3ccccc3Oc3ccccc3)CC2)n1 [Example 1003]
14,> 1000,CC(C)NC(=O)c1csc(-c2c(-c3ccc(F)cc3)n[nH]c2C2CCN(C(=O)c3ccc(Oc4ccccc4)cc3)CC2)n1 [Example 1004]
15,> 1000,CC(C)NC(=O)c1csc(-c2c(-c3ccc(F)cc3)n[nH]c2C2CCN(C(=O)c3ccc(-c4ccc(O)cc4)cc3)CC2)n1 [Example 1005]
16,> 1000,Cc1cc(C(=O)N2CCC(c3[nH]nc(-c4ccc(F)cc4)c3-c3nc(C(=O)NC(C)C)cs3)CC2)ccc1Br [Example 1006]
17,> 1000,Cc1ccc(C(=O)N2CCC(c3[nH]nc(-c4ccc(F)cc4)c3-c3nc(C(=O)NC(C)C)cs3)CC2)cc1Br [Example 1007]
18,> 1000,CC(C)NC(=O)c1csc(-c2c(-c3ccc(F)cc3)n[nH]c2C2CCN(C(=O)Cc3ccc(Br)cc3)CC2)n1 [Example 1008]
19,> 1000,CC(C)NC(=O)c1csc(-c2c(-c3ccc(F)cc3)n[nH]c2C2CCN(C(=O)C3CCCN3C(=O)OC(C)(C)C)CC2)n1 (stereo not drawn) [Example 1009]
20,> 1000,CC(C)NC(=O)c1csc(-c2c(-c3ccc(F)cc3)n[nH]c2C2CCN(C(=O)/C=C/c3ccccc3C(F)(F)F)CC2)n1 [Example 1010]

row,IC50 [nM],Structure (SMILES)
1,> 1000,CCOc1ccc2ccccc2c1C(=O)N1CCC(c2[nH]nc(-c3ccc(F)cc3)c2-c2nc(C(=O)NC(C)C)cs2)CC1 [Example 1011]
2,> 1000,CC(C)NC(=O)c1csc(-c2c(-c3ccc(F)cc3)n[nH]c2C2CCN(C(=O)C(NC(=O)OC(C)(C)C)C(C)C)CC2)n1 (stereo not drawn) [Example 1012]
3,> 1000,CC(C)NC(=O)c1csc(-c2c(-c3ccc(F)cc3)n[nH]c2C2CCN(C(=O)C(NC(=O)OC(C)(C)C)C(C)C)CC2)n1 (stereo not drawn) [Example 1013]
4,> 1000,CC(C)NC(=O)c1csc(-c2c(-c3ccc(F)cc3)n[nH]c2C2CCN(C(=O)CCc3cccc(C(F)(F)F)c3)CC2)n1 [Example 1014]
5,> 1000,CC1=NN(c2ccc(C(=O)N3CCC(c4[nH]nc(-c5ccc(F)cc5)c4-c4nc(C(=O)NC(C)C)cs4)CC3)cc2)C(=O)C1 [Example 1015]
6,> 1000,Cc1nc(Br)sc1C(=O)N1CCC(c2[nH]nc(-c3ccc(F)cc3)c2-c2nc(C(=O)NC(C)C)cs2)CC1 [Example 1016]
7,> 1000,CC(C)NC(=O)c1csc(-c2c(-c3ccc(F)cc3)n[nH]c2C2CCN(C(=O)c3c4ccccc4cc4ccccc34)CC2)n1 [Example 1017]
8,> 1000,CC(C)NC(=O)c1csc(-c2c(-c3ccc(F)cc3)n[nH]c2C2CCN(C(=O)c3cc(C(C)C)cc(C(C)C)c3O)CC2)n1 [Example 1018]
9,> 1000,CC(=O)NC(Cc1ccc(O)cc1)C(=O)N1CCC(c2[nH]nc(-c3ccc(F)cc3)c2-c2nc(C(=O)NC(C)C)cs2)CC1 (stereo not drawn) [Example 1019]
10,> 1000,CC(C)NC(=O)c1csc(-c2c(-c3ccc(F)cc3)n[nH]c2C2CCN(C(=O)c3c(Cl)cc(Cl)cc3Cl)CC2)n1 [Example 1020]
11,> 1000,COc1cc(C(=O)N2CCC(c3[nH]nc(-c4ccc(F)cc4)c3-c3nc(C(=O)NC(C)C)cs3)CC2)c([N+](=O)[O-])cc1OC [Example 1021]
12,> 1000,CC(C)NC(=O)c1csc(-c2c(-c3ccc(F)cc3)n[nH]c2C2CCN(C(=O)c3ccc(OCc4ccccc4)cc3)CC2)n1 [Example 1022]
13,> 1000,CC(C)NC(=O)c1csc(-c2c(-c3ccc(F)cc3)n[nH]c2C2CCN(C(=O)CCc3ccccc3Br)CC2)n1 [Example 1023]
14,> 1000,CC(C)NC(=O)c1csc(-c2c(-c3ccc(F)cc3)n[nH]c2C2CCN(C(=O)CCc3cccc(Br)c3)CC2)n1 [Example 1024]
15,> 1000,CC(C)NC(=O)c1csc(-c2c(-c3ccc(F)cc3)n[nH]c2C2CCN(C(=O)C3CCCCN3C(=O)OC(C)(C)C)CC2)n1 (stereo not drawn) [Example 1025]
16,> 1000,CC(C)NC(=O)c1csc(-c2c(-c3ccc(F)cc3)n[nH]c2C2CCN(C(=O)c3ccc(Oc4cccc(O)c4)cc3)CC2)n1 [Example 1026]
17,> 1000,COc1ccc2cc(C(C)C(=O)N3CCC(c4[nH]nc(-c5ccc(F)cc5)c4-c4nc(C(=O)NC(C)C)cs4)CC3)ccc2c1 (stereo not drawn) [Example 1027]
18,> 1000,CC(C)NC(=O)c1csc(-c2c(-c3ccc(F)cc3)n[nH]c2C2CCN(C(=O)C3CN(C(=O)OC(C)(C)C)CCN3)CC2)n1 (stereo not drawn) [Example 1028]
19,≤ 1000,CC(C)NC(=O)c1csc(-c2c(-c3ccc(F)cc3)n[nH]c2C2CCN(C(=O)C3CN(C(=O)OC(C)(C)C)CCN3)CC2)n1 (stereo not drawn) [Example 1029]
20,> 1000,COc1ccc(Br)c(C(=O)N2CCC(c3[nH]nc(-c4ccc(F)cc4)c3-c3nc(C(=O)NC(C)C)cs3)CC2)c1 [Example 1030]
